Consider five compounds from patent publication US10065961B2, “Chiral N-acyl-5,6,7,(8-substituted)-tetrahydro-[1,2,4]triazolo[4,3-a]pyrazines as selective NK-3 receptor antagonists, pharmaceutical composition, methods for use in NK-3 receptor mediated disorders and chiral synthesis thereof” (Euroscreen S.A., priority 2011, dated 2018).

One test addresses human NK1 receptor (Homo sapiens (Human), UniProt P25103). Kind of test: Human NK1 radioligand binding assay ([3H] substance P). The procedure: (§1) Membrane suspensions were prepared from these cells.
Another test concerns the target human NK2 receptor (Homo sapiens (Human), UniProt P21452). Kind of test: Human NK2 radioligand binding assay ([125I]-Neurokinin A). The procedure:
as §1

A further test has as its system circulating LH levels. Description: Castrated male rat model, circulating levels of luteinizing hormone (LH). The format is in vivo. As to conditions: castrated male Sprague-Dawley rats, single intravenous 10 mg/kg dose, 1 hour after dosing. The procedure: 1 on lutenizing hormone (‘LH’) plasma levels in castrated male, Sprague-Dawley rats measured 1 hour after dosing. […] Vehicle, N=10 rats; Compound no. 1, N=9 rats.
19 on lutenizing hormone (‘LH’) plasma levels in castrated male, Sprague-Dawley rats measured 1 hour after dosing. […] Vehicle, n=5 rats; Compound no. 19, n=5 rats.
Castrated Male Rat Model to Assess the Effect of Compound of Invention on Circulating Levels of Luteinizing Hormone (LH).
In humans and rodents, castration is well-precedented to permit heightened, persistent GnRH signaling and consequent elevation of circulating LH. Thus, a castrated rat model is used to provide a broad index for measurement of LH inhibition as a marker of test compound inhibition of the GnRH signaling pathway.
Castrated adult male Sprague-Dawley (SD) rats (150-175 g,) were purchased from Janvier (St Berthevin, France). […] The animals were allowed 2 weeks of postoperative recovery prior to study. Animals were handled on a daily basis. Standard diet and tap water were provided ad libitum. Animal cage litters were changed once a week. […]
After basal sampling (T0) a single dose of compounds of the invention or vehicle was administrated intravenously to rats. […] Serum LH levels were determined using radioimmunoassay kit from RIAZEN—Rat LH, Zentech (Liège, Belgium). […]

The subject of test [1] is plasma testosterone levels. Kind of test: Gonad-intact adult male rat, circulating levels of testosterone. As to conditions: gonad-intact male Sprague-Dawley rats, single intravenous 50 mg/kg dose, over 210 minute test period (AUC).

The structures appear in SMILES notation.

human NK1 receptor, sequence (P25103 whole entry): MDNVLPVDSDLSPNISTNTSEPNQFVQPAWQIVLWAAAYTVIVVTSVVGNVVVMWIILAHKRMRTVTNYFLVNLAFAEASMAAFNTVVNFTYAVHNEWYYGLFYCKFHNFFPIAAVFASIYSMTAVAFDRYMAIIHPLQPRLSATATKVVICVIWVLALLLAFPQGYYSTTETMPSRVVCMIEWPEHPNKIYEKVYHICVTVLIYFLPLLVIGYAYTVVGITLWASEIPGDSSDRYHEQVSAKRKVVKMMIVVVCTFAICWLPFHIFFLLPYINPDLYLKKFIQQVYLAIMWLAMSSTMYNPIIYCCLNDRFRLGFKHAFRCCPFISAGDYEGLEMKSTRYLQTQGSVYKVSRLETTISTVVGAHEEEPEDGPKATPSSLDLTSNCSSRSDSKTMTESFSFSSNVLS
human NK2 receptor, sequence (P21452 whole entry): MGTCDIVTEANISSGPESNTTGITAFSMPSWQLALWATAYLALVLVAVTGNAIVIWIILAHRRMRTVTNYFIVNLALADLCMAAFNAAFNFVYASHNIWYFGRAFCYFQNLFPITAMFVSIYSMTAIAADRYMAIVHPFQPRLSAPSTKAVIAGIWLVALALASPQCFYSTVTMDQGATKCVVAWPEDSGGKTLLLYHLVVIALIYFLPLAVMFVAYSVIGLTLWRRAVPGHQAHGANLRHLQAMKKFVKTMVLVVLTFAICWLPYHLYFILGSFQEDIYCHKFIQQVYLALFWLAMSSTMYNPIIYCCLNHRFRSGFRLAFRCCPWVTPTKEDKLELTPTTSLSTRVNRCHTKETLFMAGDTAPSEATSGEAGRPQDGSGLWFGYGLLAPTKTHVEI

As to `Cc1nc(-c2nnc3n2CCN(C(=O)c2ccc(-c4cccs4)cc2)C3)cs1` [compound 3, (3-(2-methylthiazol-4-yl)-5,6-dihydro-[1,2,4]triazolo[4,3-a]pyrazin-7(8H)-yl)(4-(thiophen-2-yl)phenyl)methanone], the inhibition at 10 µM at human NK1 receptor and on human NK2 receptor was less than 10% each time. With `Cc1nc(-c2nnc3n2CCN(C(=O)c2ccc(-c4cccs4)cc2)[C@@H]3C)cs1` [Compound no. 1, (R)-(8-methyl-3-(2-methylthiazol-4-yl)-5,6-dihydro-[1,2,4]triazolo[4,3-a]pyrazin-7(8H)-yl)(4-(thiophen-2-yl)phenyl)methanone], in the test with circulating LH levels, the “circulating LH levels” value was “significantly suppressed”. Besides, the plasma testosterone levels result in test [1] is reported as “significantly suppressed”.

As for `Cc1csc(-c2nnc3n2CCN(C(=O)c2ccc(-c4cccs4)cc2)[C@@H]3C)n1` [Compound no. 19, (R)-(8-methyl-3-(4-methylthiazol-2-yl)-5,6-dihydro-[1,2,4]triazolo[4,3-a]pyrazin-7(8H)-yl)(4-(thiophen-2-yl)phenyl)methanone], in the test on circulating LH levels, the “circulating LH levels” value is recorded as “significantly suppressed”. For `Cc1nc(-c2nnc3n2CCN(C(=O)c2ccc(-c4cccs4)cc2)[C@@H]3C)co1` [compound 11, (R)-(8-methyl-3-(2-methyloxazol-4-yl)-5,6-dihydro-[1,2,4]triazolo[4,3-a]pyrazin-7(8H)-yl)(4-(thiophen-2-yl)phenyl)methanone], the inhibition at 10 µM at human NK1 receptor was less than 10%; on human NK2 receptor it was less than 25%. The corresponding values for `C[C@@H]1c2nnc(-c3cccc(O)n3)n2CCN1C(=O)c1ccc(-c2cccs2)cc1` [compound 31, (R)-(3-(6-hydroxypyridin-2-yl)-8-methyl-5,6-dihydro-[1,2,4]triazolo[4,3-a]pyrazin-7(8H)-yl)(4-(thiophen-2-yl)phenyl)methanone] are less than 10% and less than 10%.
